Measurements from the NIST ThermoML archive (doi:10.1016/j.fluid.2014.01.019).
Numbers after ± are expanded uncertainties.

Conditions: Liquid; for mass density: 101.33 kPa, Vibrating tube method; for speed of sound: 101 kPa, Frequency=2 MHz, Linear variable-path acoustic interferometer

SMILES	mass density (298.15 K) [kg/m3]	speed of sound (303.15 K) [m/s]	mass density (303.15 K) [kg/m3]	mass density (308.15 K) [kg/m3]	speed of sound (313.15 K) [m/s]	mass density (313.15 K) [kg/m3]
Cc1ccccc1Cl [2-chlorotoluene]	1076.47 ± 0.15	1285 ± 8	1072.86 ± 0.15	1068.21 ± 0.15	1248 ± 8	1064.01 ± 0.15
Cc1ccccc1[N+](=O)[O-] [2-nitrotoluene]	1159.6 ± 0.19	1439 ± 9	1153.29 ± 0.18	1149.78 ± 0.18	1403 ± 9	1144.91 ± 0.18
Cc1cccc(Cl)c1 [3-chlorotoluene]	1067.25 ± 0.15	1281 ± 8	1062.79 ± 0.15	1058.29 ± 0.15	1247 ± 8	1053.49 ± 0.15
Cc1cccc([N+](=O)[O-])c1 [3-nitrotoluene]	1152.23 ± 0.18	1442 ± 9	1147.67 ± 0.18	1142.67 ± 0.18	1409 ± 9	1137.98 ± 0.18
Cc1ccc(Cl)cc1 [4-chlorotoluene]	1064.93 ± 0.16	1274 ± 8	1059.56 ± 0.16	1054.27 ± 0.15	1237 ± 8	1049.29 ± 0.15
OCc1ccccc1 [benzenemethanol]	1041.44 ± 0.14	1514 ± 9	1037.67 ± 0.14	1033.75 ± 0.14	1485 ± 9	1029.91 ± 0.14
